Measurements from patent publication US20260240851A1, “Treatment of Parkinson's Disease in a Patient Using a Glucocerebrosidase Activator” (BIAL - R&D Investments, S.A., priority 2023, published 2026).
Read-outs that look alike come from different tables or passages of the source.

Tests used:
[1] = BIA 28-6156-105: continuous cardiac monitoring, concentration-QTc analysis
[2] = BIA 28-6156-107 DDI: effect of multiple-dose carbamazepine on single-dose PK of Compound A; type: in vivo, human; details: for Tmax / half-life: both sexes, human, in vivo, oral; for Tmax: read-out: Median Tmax; for half-life: read-out: geometric mean t1/2 (converted)
[3] = LTI-291-003 multiple dose study in GBA-PD: plasma and CSF pharmacokinetics; type: in vivo, human; details: for Tmin / Tmax: median; for Kp at 4 h / Cmax / AUC(0-t) / Tmax: human, oral; for Kp at 4 h: CSF and plasma, after the 28th daily dose, read-out: CSF-to-plasma concentration ratio, mean (SD); for Cmax / AUC(0-t) / Tmax: plasma
Description: This study was a Phase 1b, randomized, double-blind, placebo-controlled, multiple oral dose study of Compound A in 40 subjects (aged 40 to 80 years) with GBA-PD. Approximately 50% of the enrolled subjects had major (loss of 30%-50% total activity) mutations in GCase and 50% had polymorphism mutation (loss of 10%-20% of total activity) mutations in GCase. The objectives of this study were to investigate the safety, tolerability, and PK of multiple once-daily oral administration of Compound A and to explore the accompanying pharmacodynamic changes in subjects with GBA-PD with major and polymorphism mutations. Subjects received once-daily oral doses of 10 mg (n=10), 30 mg (n=10), or 60 mg (2×30 mg capsules) (n=10) Compound A or placebo (n=10) for 28 consecutive days.
Blood samples for Compound A concentrations were collected up to 6 hours after the first and last doses. CSF samples for Compound A concentrations were taken before the first dose and 4 hours after the last dose for each dose level.

[4] = LTI-291-001: safety and tolerability; type: in vivo, human
Procedure: This study was a first-in-human Phase 1, randomized, double-blind, placebo-controlled, single-ascending dose study to evaluate the safety and tolerability, PK, and PD of escalating single oral doses of Compound A (3, 10, 30, and 90 mg) in 4 cohorts of healthy subjects. A total of 32 subjects received a single oral dose of Compound A (8 per dose group) and 8 subjects received placebo. The effect of food on the PK of Compound A was evaluated by administering a second single oral dose of 10 mg Compound A to the subjects in Cohort 2 on a separate occasion, after subjects had completed a high-fat breakfast. Blood samples for Compound A PK were collected up to 48 hours after each dose.

[5] = LTI-291-001: CNS (NeuroCart) assessments; type: in vivo, human; details: single doses 3-90 mg, healthy subjects
Procedure: The pharmacodynamic evaluations consisted of a battery of CNS (NeuroCart®) assessments, including Saccadic Eye Movements, Smooth Pursuit Eye Movements, Adaptive Tracking, Body Sway, Visual Verbal Learning Test, and EEG. GluCer was measured in plasma and PBMCs as a biomarker of pharmacological effect.

[6] = after 6 days of dosing with 60 mg, Sinemet portion
Procedure: This was a Phase 1, non-randomized, open-label, 2-cohort, cross-over, DDI study in healthy male and female subjects.
In Cohort 1, a single oral dose 100 mg/25 mg levodopa-carbidopa (Sinemet®) IR was administered alone on Day 1.

[7] = LTI-291-002: safety and tolerability; type: in vivo, human
Procedure: This study was a phase 1, randomized, double-blind, placebo-controlled, multiple ascending dose study of Compound A in 4 cohorts of middle-aged to elderly healthy participants (aged 52 to 75 years). […] A total of 39 healthy subjects were enrolled in 4 sequential cohorts. Subjects in each cohort received once-daily oral doses of 3 mg (n=7), 10 mg (n=8), 30 mg (n=8), or 60 mg (n=8) Compound A or placebo (n=8) for 14 days. Pharmacokinetic parameters were determined for each dose at Day 1, Day 7, and Day 14. Cerebrospinal fluid samples for Compound A concentrations were measured before the first dose and 4 hours after the last dose for each dose level. GluCer, glucosyl sphingosine (GluSph), and lactosyl-ceramide (LacCer) were measured in plasma, PBMCs, and CSF as biomarkers of pharmacological effects. Pharmacodynamic measurements consisted of battery of CNS (NeuroCart®) assessments including Saccadic Eye Movements, Smooth Pursuit Eye Movements, Adaptive Tracking, Body Sway, Visual Verbal Learning Test, and pharmaco-EEG.

[8] = J. M den Heijer, 2021; cited from earlier work
[9] = Compound A + carbamazepine vs Compound A alone
[10] = 60 mg Compound A administered alone
[11] = 10 mg daily, dose 28, GBA-PD, geometric mean
[12] = 30 mg daily, dose 1, GBA-PD, geometric mean
[13] = 30 mg daily, dose 28, GBA-PD, geometric mean
[14] = 60 mg daily, dose 1, GBA-PD, geometric mean
[15] = 60 mg daily, dose 28, GBA-PD, geometric mean

CCCCCO[C@H]1CC[C@H](NC(=O)c2cnn3c(C)cc(C)nc23)CC1 [Compound A, 5,7-dimethyl-N-((1S*,4S)-4-(pentyloxy)cyclohexyl)pyrazolo[1,5-a]pyrimidine-3-carboxamide]
effects on cardiac ECG parameters ([1]; doses of 60 and 150 mg): no clinically relevant effects | effect on ΔΔQTcF (concentration-QTc analysis) ([1]; plasma concentrations of Compound A up to approximately 7150 ng/mL): ≤ 10 ms | AUC0-inf ratio of geometric least squares means (point estimate) [2, 9]: 0.363 | AUC0-last ratio of geometric least squares means (point estimate) [2, 9]: 0.367 | Cmax ratio of geometric least squares means (point estimate) [2, 9]: 0.877 | Tmax [2, 10]: 1 h | half-life [2, 10]: 28 h | Tmax ([2]; 60 mg Compound A coadministered with carbamazepine): 2 h | half-life ([2]; Compound A coadministered with carbamazepine): 12 h | reduction of AUC0-inf ([2]; with carbamazepine vs alone): 64% | reduction of AUC0-last ([2]; with carbamazepine vs alone): 63% | reduction of Cmax ([2]; with carbamazepine vs alone): approximately 12% | Cmax/dose ([3]; 10 mg daily, dose 1, GBA-PD, geometric mean): 25.4 ng/mL/mg | AUC0-last/dose ([3]; 10 mg daily, dose 1, GBA-PD, geometric mean (% CV)): 109 (32.8) ng · h/mL mg | AUC0-last/dose [3, 11]: 252 ng·h/mL/mg | Cmax/dose [3, 11]: 52.0 ng/mL/mg | Cmin [3, 11]: 246 ng/mL | Tmin ([3]; 10 mg daily, dose 28, GBA-PD): 26.3 h | AUC0-last/dose [3, 12]: 76.8 ng·h/mL/mg | Cmax/dose [3, 12]: 18.7 ng/mL/mg | AUC0-last/dose [3, 13]: 241 ng·h/mL/mg | Cmax/dose [3, 13]: 47.9 ng/mL/mg | Cmin [3, 13]: 788 ng/mL | Tmin ([3]; 30 mg daily, dose 28, GBA-PD): 26.1 h | AUC0-last/dose [3, 14]: 102 ng·h/mL/mg | Cmax/dose [3, 14]: 25.5 ng/mL/mg | Cmax/dose [3, 15]: 46.6 ng/mL/mg | Cmin [3, 15]: 1370 ng/mL | AUC0-last/dose ([3]; 60 mg daily, dose 28, GBA-PD, geometric mean (% CV)): 234 (15.7) ng · h/mL mg | Tmin ([3]; 60 mg daily, dose 28, GBA-PD): 26.0 h | total exposure (Cmax and AUC0-last) versus dose ([3]; 10 to 60 mg, after 1st and 28th dose): increase in a dose proportional manner | time of peak plasma concentrations (median) ([3]; after the 1st and 28th daily dose): 2.0 h | Kp at 4 h ([3]; 10 mg): 0.0113 | Kp at 4 h ([3]; 30 mg): 0.0122 | Kp at 4 h ([3]; 60 mg): 0.0115 | Cmax ([3]; 10 mg, 10 mg daily, dose 1, GBA-PD, geometric mean (% CV)): 254 ng/mL | AUC(0-t) ([3]; 10 mg, 10 mg daily, dose 1, GBA-PD, geometric mean, read-out: AUC0-6): 1080 ng·h/mL | AUC(0-t) ([3]; 10 mg, 10 mg daily, dose 1, GBA-PD, geometric mean, read-out: AUC0-last): 1090 ng·h/mL | Cmax ([3]; 10 mg, 10 mg daily, dose 28, GBA-PD, geometric mean): 520 ng/mL | AUC(0-t) ([3]; 10 mg, 10 mg daily, dose 28, GBA-PD, geometric mean, read-out: AUC0-6): 2520 ng·h/mL | AUC(0-t) ([3]; 10 mg, 10 mg daily, dose 28, GBA-PD, geometric mean, read-out: AUC0-last): 2520 ng·h/mL | Cmax ([3]; 30 mg, 30 mg daily, dose 1, GBA-PD, geometric mean (% CV)): 561 ng/mL | AUC(0-t) ([3]; 30 mg, 30 mg daily, dose 1, GBA-PD, geometric mean, read-out: AUC0-6): 2300 ng·h/mL | AUC(0-t) ([3]; 30 mg, 30 mg daily, dose 1, GBA-PD, geometric mean, read-out: AUC0-last): 2300 ng·h/mL | Cmax ([3]; 30 mg, 30 mg daily, dose 28, GBA-PD, geometric mean): 1440 ng/mL | AUC(0-t) ([3]; 30 mg, 30 mg daily, dose 28, GBA-PD, geometric mean, read-out: AUC0-6): 7230 ng·h/mL | AUC(0-t) ([3]; 30 mg, 30 mg daily, dose 28, GBA-PD, geometric mean, read-out: AUC0-last): 7230 ng·h/mL | Cmax ([3]; 60 mg, 60 mg daily, dose 1, GBA-PD, geometric mean): 1530 ng/mL | AUC(0-t) ([3]; 60 mg, 60 mg daily, dose 1, GBA-PD, geometric mean, read-out: AUC0-6): 6080 ng·h/mL | AUC(0-t) ([3]; 60 mg, 60 mg daily, dose 1, GBA-PD, geometric mean, read-out: AUC0-last): 6100 ng·h/mL | Cmax ([3]; 60 mg, 60 mg daily, dose 28, GBA-PD, geometric mean): 2790 ng/mL | AUC(0-t) ([3]; 60 mg, 60 mg daily, dose 28, GBA-PD, geometric mean, read-out: AUC0-6): 14100 ng·h/mL | AUC(0-t) ([3]; 60 mg, 60 mg daily, dose 28, GBA-PD, geometric mean, read-out: AUC0-last): 14100 ng·h/mL | Tmax ([3]; 10 mg daily, dose 1, GBA-PD): 2 h | Tmax ([3]; 30 mg daily, dose 1, GBA-PD): 2 h | Tmax ([3]; 60 mg daily, dose 1, GBA-PD): 2 h | PK in healthy subjects versus subjects with GBA-PD ([3]; in vivo): similar | AE fatigue, subjects ([4]; all Compound A groups): 7.5% | AE headache, subjects ([4]; all Compound A groups): 12.5% | AE somnolence, subjects ([4]; all Compound A groups): 10% | at least one AE in the GI system organ class, subjects ([4]; all Compound A groups): 7.5% | vital signs, laboratory safety assessments, ECG parameters ([4]; single doses): no clinically significant safety observations | deaths, SAEs, severe AEs, discontinuations due to AEs ([4]; single doses 3-90 mg): No deaths, other SAEs, severe AEs, or discontinuations due to AEs | effects on CNS (Neurocart) tests [5]: no dose-dependent effects | steady state concentrations of Compound A [6]: appeared not to have been reached | Myalgia, subjects ([7]; 3 mg dose group): 14% | Somnolence, subjects ([7]; 3 mg dose group): 14% | Myalgia, subjects ([7]; 10 mg dose group): 0% | Somnolence, subjects ([7]; 10 mg dose group): 0% | Myalgia, subjects ([7]; 30 mg dose group): 13% | Somnolence, subjects ([7]; 30 mg dose group): 0% | Myalgia, subjects ([7]; 60 mg dose group): 38% | Somnolence, subjects ([7]; 60 mg dose group): 50% | creatine kinase abnormalities ([7]; 60 mg group): No clinically significant creatine kinase abnormalities | deaths, SAEs, severe AEs, discontinuations due to AEs ([7]; 3-60 mg daily for 14 days): No deaths, other SAEs, severe AEs, or discontinuations due to AEs | vital signs, laboratory safety assessments, ECG parameters ([7]; 14 days): no clinically significant safety observations | AE back pain, subjects ([7]; all Compound A groups): 13% | AE headache, subjects ([7]; all Compound A groups): 39% | AE myalgia, subjects ([7]; all Compound A groups): 16% | AE somnolence, subjects ([7]; all Compound A groups): 16% | safety and tolerability in healthy humans [8]: generally well tolerated
